# Assay results reported in US10717758B2, “D-amino acid compounds for liver disease” (priority 2012, dated 2020).
# Assays:
# Huh-7 cells = assay: Release of active metabolite in Huh-7 cells; type: in vitro ADME, human
# Description: Huh-7 cells were plated in 1 mL culture medium (DMEM, containing glucose, L-glutamine and sodium pyruvate, 10% FBS, 100 IU/mL penicillin, 100 μg/mL streptomycin, 2 mM GlutaMAX, 1% MEM non-essential amino acids) at the concentration 0.8, 0.4 and 0.2 million cells per well on 6 well plates for 24, 48 and 72 hr treatment, respectively. Plated cells were incubated overnight at 37° C. in an incubator.
# The following morning test compound was diluted to 20 μM from a stock solution in DMSO in fresh culture medium pre-warmed to 37° C. and 1 mL of the solution/well was added to cells. A final medium volume per well was 2.0 mL, test compound concentration in well was 10 μM and final DMSO concentration was 0.1%.
# After 24, 48 or 72 hr, the medium was carefully removed and cell monolayers were washed twice with 2 mL ice-cold PBS per well. Following the last wash, all PBS was carefully removed and 1.0 mL of extraction solution (ice-cold 70% methanol) added. The plate was tightly covered with Parafilm, plastic plate cover and Parafilm again and an intracellular content was extracted at −20° C. for 24 hr.
# After 24 hr the extracts were transferred into polypropylene microfuge tubes and dry on a refrigerated centrivap concentrator. Dry residues were reconstituted in 250 μL of HPLC-grade water and centrifuged at 16,000×g for 10 min. Aliquots (100 μL each) of the supernatants were transferred into a 96 well plate and internal standard (4 ng/mL final concentration) was added as the internal standard (IS) for LC-MS/MS analysis.
# fresh human hepatocytes = assay: Release of active metabolite in primary hepatocytes (human); type: in vitro ADME; conditions: 10 μM
# Description: (§1) Plates of fresh human and mouse hepatocytes were obtained on ice. The medium was removed and replaced with hepatocyte culture medium (William's E supplemented with penicillin-streptomycin, 1% L-glutamine, 1% insulin-transferrin-selenium and 0.1 μM Dexamethasone (Invitrogen) or with Invitro GRO HI medium complemented with Torpedo antibiotics (Celsis)). Cells were left overnight in an incubator at 37° C. to acclimatize to culture and the medium.
# Hepatocyte incubations were conducted at a final volume of 0.5 mL hepatocyte culture medium/well (0.8 million cells/well for human and 0.5 million cells/well for mouse; 12 well plate no overlay, collagen coat). Culture medium from overnight incubation of cells was removed and replaced with fresh medium, pre-warmed to 37° C., containing 10 μM of test compound from a stock solution in DMSO (final DMSO concentration was 0.1%). At each specific time point, incubation medium was removed and cell monolayers were carefully washed two times with ice-cold PBS. Following the last wash, all PBS was carefully removed and 1.0 mL of extraction solution (ice-cold 70% methanol/30% water) added. Cells were scraped off and suspended in the extraction solution, transferred to 2 mL polypropylene microfuge tubes and intracellular contents extracted overnight at −20° C. […]
# Zluc cells = assay: Cytotoxicity evaluation in Zluc cells (CellTiter-Blue); type: cell-based, human; conditions: read-out: HCV Replicon CC50
# Description: For cytotoxicity evaluation, Zluc cells were treated with compound as described herein, and cell viability was monitored using the CellTiter-Blue Cell Viability Assay (Promega) by adding 20 μL of the assay solution to each well. The plates were then incubated at 37° C./5% CO2 for at least 3 hours.
# fresh mouse hepatocyte = assay: Release of active metabolite in primary hepatocytes (mouse); type: in vitro ADME; conditions: 10 μM
# Description: as §1
# Hepatocyte incubations were conducted at a final volume of 0.5 mL hepatocyte culture medium/well (0.8 million cells/well for human and 0.5 million cells/well for mouse; 12 well plate no overlay, collagen coat). Culture medium from overnight incubation of cells was removed and replaced with fresh medium, pre-warmed to 37° C., containing 10 μM of test compound from a stock solution in DMSO (final DMSO concentration was 0.1%). At each specific time point, incubation medium was removed and cell monolayers were carefully washed two times with ice-cold PBS. Following the last wash, all PBS was carefully removed and 1.0 mL of extraction solution (ice-cold 70% methanol/30% water) added. Cells were scraped off and suspended in the extraction solution, transferred to 2 mL polypropylene microfuge tubes and intracellular contents extracted overnight at −20° C.
# After the overnight treatment the cellular extracts were prepared by centrifugation at 16,000×g for 10 min to remove cellular debris. The remaining sample was then dried using a refrigerated centrivap concentrator. Dry extracts were reconstituted in 1000 μL of HPLC-grade water and centrifuged at 16,000×g for 10 min. Aliquots (100 μL each) of the supernatant were transferred into a 96 well plate and internal standard (4 ng/mL final concentration) was added as the internal standard (IS) for LC-MS/MS analysis.
# The incubation time points were 6, 24 and 48 hours for human hepatocytes and 1, 4, 8, 12 and 24 hours for mouse hepatocytes.
# HCV genotype 1b replicon = assay: HCV replicon assay; type: cell-based; conditions: Hepatitis C virus, 72 h, Zluc (Huh-7-derived) cells, luciferase reporter, 72 hours; read-out: HCV Replicon EC50
# Description: Huh-7-derived cell line (Zluc) that harbors an HCV genotype 1b replicon and a luciferase reporter gene was grown in Dulbecco's Modified Eagle Medium (DMEM) supplemented with 10% fetal bovine serum, 2 mM GlutaMAX, 1% MEM nonessential amino acids, 100 IU/mL penicillin, 100 μg/mL streptomycin, and 0.5 mg/mL Geneticin® (G418). For dose response testing the cells were seeded in 96-well plates at 7.5×10^3 cells per well in a volume of 50 μL, and incubated at 37° C./5% CO2. Drug solutions were made up freshly in Huh-7 media as 2× stocks. Ten additional 5-fold dilutions were prepared from these stocks in DMEM without G418. At least three hours after Zluc cells were seeded, drug treatment was initiated by adding 50 μL of drug dilutions to the plates in duplicate. Final concentrations of drug ranged from 100 μM to […]. Cells were then incubated at 37° C./5% CO2. Alternatively, compounds were tested at two concentrations (1 μM and 10 μM). […] For this, media was removed from the plates via gentle tapping. Fifty microliters of ONE-glo luciferase assay reagent was added to each well. The plates were shaken gently for 3 min at room temperature and luminescence was measured on a Victor^3 V 1420 multilabel counter (Perkin Elmer) with a 1 second read time using a 700 nm cut-off filter. The EC50 values were calculated from dose response curves from the resulting best-fit equations determined by Microsoft Excel and XLfit 4.1 software. When screening at two fixed concentrations, the results were expressed as % inhibition at 1 μM and 10 μM.
# cathepsin A (CatA) = target: T1, cathepsin A (CatA) (Homo sapiens, UniProt P10619); assay: Hydrolysis of prodrugs by Cathepsin A; type: in vitro ADME
# T1 sequence (P10619 29-326 limits assumed): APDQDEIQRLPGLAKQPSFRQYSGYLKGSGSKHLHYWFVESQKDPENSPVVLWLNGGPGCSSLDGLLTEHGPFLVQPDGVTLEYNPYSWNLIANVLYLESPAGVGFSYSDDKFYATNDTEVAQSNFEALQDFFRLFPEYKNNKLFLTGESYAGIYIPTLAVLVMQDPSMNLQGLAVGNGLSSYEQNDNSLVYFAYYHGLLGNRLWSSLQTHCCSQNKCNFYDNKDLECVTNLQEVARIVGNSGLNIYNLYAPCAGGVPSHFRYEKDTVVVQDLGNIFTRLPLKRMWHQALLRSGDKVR
# T1 sequence (P10619 327-480 limits assumed): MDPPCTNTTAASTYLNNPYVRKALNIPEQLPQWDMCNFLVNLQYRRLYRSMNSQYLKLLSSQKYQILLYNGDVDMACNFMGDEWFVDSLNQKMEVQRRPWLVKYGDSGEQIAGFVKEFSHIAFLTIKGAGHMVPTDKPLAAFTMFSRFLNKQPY
# Description: CatA, cathepsin L (CatL) and CES1 were purchased from R & D Systems (Minneapolis, Minn.). Prior to the enzymatic hydrolysis reactions, CatA was activated according to the manufacturer's instruction. Briefly, CatA (0.05 μg/μL) was incubated with CatL (0.005 μg/μL) for 30 min at 37° C. in 25 mM MES pH 6.0 containing 5 mM DTT. The reaction was stopped by addition of the CatL specific inhibitor E64 (10 μM).
# The CatA assay was performed at 37° C. The reaction mixture contained 25 mM MES buffer pH 6.0, 100 mM NaCl, 4 mM DTT and 100 μM of the compound. The reaction was started by addition of the activated CatA enzyme to a final concentration of 0.005 μg/μL. […] Reactions were stopped by mixing the sample with an equal volume of ice-cold methanol, and were loaded on a HPLC for analysis.
# [1] = Liver TP formation and liver targeting in vivo (Example 6, Table 7); design: species or system mice and monkey
# From the text: The in vitro antiviral inactivity of Z4 and Z2 is thought to reflect an inability of Huh-7 replicon cells to metabolize the prodrug moiety.
# [2] = Plasma and liver PK after single oral dose (Example 4C); type: in vivo, CD-1 mice; conditions: at 1 μmol/kg; single oral dose 10 mg/kg for 804a or 25 mg/kg for 804b
# Description: Plasma samples were analyzed for 2′-methyl-2′-fluorouridine (2′-Me-2′-F-U) by LC-MS/MS. The internal standard (IS) was D3-2′-F-2′-Me-G. For protein precipitation and extraction, each plasma sample (50 μL) was treated with 500 μL of 0.2% formic acid in acetonitrile and 20 μL of the internal standard working solution. After vortexing and centrifugation, 500 μL of the sample extracts were transferred to a new plate, dried under N2 at ˜28° C. and reconstituted with 75 μL of 0.2% FA in water. The extracts were chromatographed on an Aquasil C18 column using a gradient system of 0.2% formic acid in water and acetonitrile. The analytes were detected and quantified by tandem mass spectrometry in positive ion mode on an MDS Sciex API5000 equipped with a Turbo Ionspray® interface. The calibration range was 0.500 (LLOQ) to 200 ng/mL in mouse plasma. The corresponding range for molar units is 1.92 to 769 pmol/mL.
# Liver samples were analyzed for the active species 2′-methyl-2′-fluorouridine triphosphate (2′-Me-2′-F—U TP) by LC-MS/MS. […] Internal standard solution was added to the homogenate followed by neutralization with 20% ammonium hydroxide solution and addition of 500 μL 1% formic acid. The tissue samples were extracted by weak anion exchange solid phase extraction (SPE). […]
Compound,Huh-7 TP AUC (Huh-7 cells; 10 μM test compound) [pmol.hr/mill cells],Huh-7 TP Cmax (Huh-7 cells; 10 μM test compound) [pmol/mill cells],FHH TP AUC (fresh human hepatocytes) [pmol.hr/mill cells],FHH TP Cmax (fresh human hepatocytes) [pmol/mill cells],CC50 (Zluc cells) [nM],MsH AUC (fresh mouse hepatocyte) [pmol.hr/mill cells],MsH Cmax (fresh mouse hepatocyte) [pmol/mill cells],EC50 (HCV genotype 1b replicon) [nM],Huh-7 AUC0-72 (Huh-7 cells; Table 7) [pmol*hr/10^6cells],Hydrolysis by CatA (cathepsin A (CatA)),"CatA hydrolysis (cathepsin A (CatA); @ 18 h, 100 μM compound, 37° C., pH 6.0) [%]",Liver TP [1] [pmol·h/g],Ms Plasma 2′-Me-2′-F-U AUC [2] [M·s]
"CC(C)OC(=O)[C@H](C)NP(=O)(OC[C@H]1O[C@@H](n2ccc(=O)[nH]c2=O)[C@](C)(Cl)[C@@H]1O)Oc1ccccc1 (single isomer, unassigned) [40ii Diastereomer 2]",14544,294,4934,197,> 50000,1794,87,250 to 1000,,,,,
"CC(C)OC(=O)[C@H](C)N[P@@](=O)(OC[C@H]1O[C@@H](n2ccc(=O)[nH]c2=O)[C@](C)(F)[C@@H]1O)Oc1ccccc1 [PSI-7976, reference compound]",,,,,,,,,6527,hydrolyzed,10,310,0.00115
CC(C)OC(=O)[C@H](C)N[P@](=O)(OC[C@H]1O[C@@H](n2ccc(=O)[nH]c2=O)[C@](C)(F)[C@@H]1O)Oc1ccccc1 [GS-7977],,,,,,,,,,,,,0.00115
